Where two headings read alike, the source gives them in different places.

For assay [1], the system named is 931 cancer cell lines. The experiment in a line: Cancer cell line screening. Type of assay: cell-based. The settings on record: 72 h, read-out: mean IC50 across cell line panel.
Assay [2] deals with c-MYC, p-STAT3, c-PARP levels in MM1.S cells. The experiment in a line: Immunoblotting of biomarkers in MM1.S. Type of assay: cell-based, human. Conditions: 6 h drug exposure. (A western blot detects proteins with antibodies after separation by electrophoresis.)
Assay [3] relates to MM1.S cells. The experiment in a line: Flow cytometry cell cycle analysis, MM1.S. The settings on record: 0.5 μM, 24 h. Format: cell-based, human. For orientation: In flow cytometry, cells or beads pass a laser one at a time.
For assay [4], the system named is UKE-1 cells. The experiment in a line: Development of drug resistance in UKE-1 cells. Format: cell-based, human. Conditions: two months, starting at IC20.
Assay [5] relates to MM1.S cells. The experiment in a line: Cell viability. Format: cell-based, human. Conditions: 72 h, read-out: Cell growth inhibition IC50, MM1.S.
Assay [6] relates to SAOS2 cells. The experiment in a line: Cell viability. Format: cell-based, human. The settings on record: for IC50: read-out: Cell growth inhibition IC50, SAOS2.
Assay [7] concerns HCC-78 cells. The experiment in a line: Cell viability. Conditions: for IC50: read-out: Cell growth inhibition IC50, HCC78. Type of assay: cell-based, human.
The subject of assay [8] is UKE-1 cells. The experiment in a line: Cell viability. Type of assay: cell-based, human. Conditions: read-out: Cell growth inhibition IC50, UKE-1.
Assay [9] concerns the target BRDT-1 (Homo sapiens, UniProt Q58F21). The experiment in a line: Alpha Screen binding assay, BRDT-1. Conditions: relative to BRD4.
Assay [10] addresses T1, BRD4-1 (Homo sapiens, UniProt O60885). The experiment in a line: qPCR binding assay, BRD4-1. The settings on record: read-out: BRD4-1 Kd, qPCR; single experiment in duplicate. Background: In qPCR the cycle at which signal appears reflects the starting amount.
In assay [11] the target is T1, BRD4-1. The experiment in a line: Differential scanning fluorimetry. Format: binding. The settings on record: 100 μM inhibitor, 4 μM BRD4-1; mean of 3 experiments in quadruplicate.
Assay [12] deals with BRD4. The settings on record: read-out: IC50(BRD4); cited from earlier work.

For orientation: IC50 means the concentration that inhibits the measured activity by half. `Cc1cnc(Nc2ccc(OCCN3CCCC3)cc2)nc1Nc1cccc(S(=O)(=O)NC(C)(C)C)c1` [TG101348]: the concentration for half-maximal inhibition (IC50) in assay [1] is 10000 nM.
`N#CC[C@H](C1CCCC1)n1cc(-c2ncnc3[nH]ccc23)cn1` [Ruxolitinib]: in [2], the “onset of apoptosis, c-PARP levels” value was “ineffective”. Besides, the “cell cycle effect / G1 arrest” value in assay [3] was “only slightly affected”. Further, the “development of resistance upon prolonged exposure” value in [4] is listed as “readily developed resistance”. Moreover, the IC50 in [5] (Homo sapiens, MM1.S) is above 10000 nM; in assay [6] (Homo sapiens, SAOS-2, 72 h), above 10000 nM; in [7] (Homo sapiens, HCC78, 72 h), above 10000 nM; in [8] (Homo sapiens, UKE1, 72 h), 170 nM.
What is called Kd is the constant that tells how readily two partners part at equilibrium. For the compound (+)-JQ1, in assay [2], the “onset of apoptosis, c-PARP levels” value is “ineffective”. The “fold less active against BRDT-1” value in assay [9] is 7 fold. Moreover, the Kd in assay [10] is 9.1 nM. The IC50 in assay [5] (Cell titer blue) is 100 nM; in assay [6] (72 h, Cell titer blue), 1500 nM; in [7] (72 h, Cell titer blue) it was 2600 nM; in assay [8] (72 h, Cell titer blue) it was 210 nM. In addition, the “ΔTm, DSF” value in assay [11] is 8.8 °C. For the same compound, in [6] (72 h, Hill fit), the “maximum fraction affected, SAOS-2” value is listed as ~ 0.5. Besides, in assay [7] (72 h, Hill fit), the “maximum fraction affected, HCC-78” value is listed as ~ 0.5.
In the case of `CC(C)(C)c1cc(NC(=O)Nc2ccc(-c3cn4c(n3)sc3cc(OCCN5CCOCC5)ccc34)cc2)no1` [Quizartinib], in [3], the “cell cycle effect / G1 arrest” value was “only slightly affected”. Further, the IC50 in assay [5] (Homo sapiens, MM1.S) is above 10000 nM; in [6] (Homo sapiens, SAOS-2, 72 h) it was above 10000 nM; in assay [7] (Homo sapiens, HCC78, 72 h) it was above 10000 nM; in assay [8] (Homo sapiens, UKE1, 72 h), 9500 nM.
For the compound `Cc1cnc(Nc2ccc(N3CCN(C)CC3)cc2)nc1Nc1cccc(S(=O)(=O)NC(C)(C)C)c1` [TG101209], in [3], the “cell cycle effect / G1 arrest” value is reported as “moderate increase of cells in G1”. Besides, in assay [4], the “development of resistance upon prolonged exposure” value is “readily developed resistance”. In addition, the 50% inhibitory concentration (IC50) was […] in [12]; 1400 nM in assay [5] (Cell titer blue); 1500 nM in assay [6] (72 h, Cell titer blue); 1900 nM in assay [7] (72 h, Cell titer blue); 320 nM in assay [8] (72 h, Cell titer blue). The “ΔTm, DSF” value in assay [11] was 6.8 °C.
